This is an account of results in patent US20240025887A1, “THIENYL AND CYCLOALKYL AMINOPYRIMIDINE COMPOUNDS AS INHIBITORS OF NUAK KINASES, COMPOSITIONS AND USES THEREOF” (Ontario Institute for Cancer Research (OICR), priority 2021, published 2024).

Test [1] concerns the target T1, NUAK2 (h) (Homo sapiens, UniProt Q9H093).
T1 construct: This assay was done radiometrically using full-length, recombinant enzyme; purchased Eurofins
T1 sequence (Q9H093 1-628): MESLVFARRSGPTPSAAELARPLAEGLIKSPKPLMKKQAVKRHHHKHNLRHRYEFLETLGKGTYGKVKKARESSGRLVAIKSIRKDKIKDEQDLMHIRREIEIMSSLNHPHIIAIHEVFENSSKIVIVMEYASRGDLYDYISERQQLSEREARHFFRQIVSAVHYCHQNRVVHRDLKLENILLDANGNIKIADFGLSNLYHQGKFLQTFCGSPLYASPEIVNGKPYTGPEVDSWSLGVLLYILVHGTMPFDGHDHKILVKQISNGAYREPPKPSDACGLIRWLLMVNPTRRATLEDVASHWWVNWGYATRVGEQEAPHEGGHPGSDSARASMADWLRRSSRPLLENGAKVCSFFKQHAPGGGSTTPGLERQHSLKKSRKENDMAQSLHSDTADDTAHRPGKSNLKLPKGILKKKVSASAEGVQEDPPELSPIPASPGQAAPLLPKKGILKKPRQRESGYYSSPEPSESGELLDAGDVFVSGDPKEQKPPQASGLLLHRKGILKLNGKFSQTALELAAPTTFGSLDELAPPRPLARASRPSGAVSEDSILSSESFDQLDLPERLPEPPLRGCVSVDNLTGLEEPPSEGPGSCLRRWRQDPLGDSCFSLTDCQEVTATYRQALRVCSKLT
In words: NUAK2 enzymatic assay (radiometric, Eurofins). The format is biochemical. To be noted: for IC50: radiometric, full-length recombinant enzyme; for AUR-A (IC50, nM)/NUAK2 (IC50, nM): NUAK2 selectivity over Aurora-A, ratio of IC50s. The method in brief: (§1)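 Radiometric assay with full-length recombinant NUAK2 in 8 mM MOPS pH 7.0, 0.2 mM EDTA, 10 mM magnesium acetate, 300 μM peptide substrate and [33P]-ATP, 40 min at room temperature. Phosphoric acid stop, filter capture, scintillation counting. Aurora A and NUAK1 used as counter screens.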

The target in test [2] is T2, NUAK1 (Homo sapiens, UniProt O60285).
T2 sequence (O60285 1-661): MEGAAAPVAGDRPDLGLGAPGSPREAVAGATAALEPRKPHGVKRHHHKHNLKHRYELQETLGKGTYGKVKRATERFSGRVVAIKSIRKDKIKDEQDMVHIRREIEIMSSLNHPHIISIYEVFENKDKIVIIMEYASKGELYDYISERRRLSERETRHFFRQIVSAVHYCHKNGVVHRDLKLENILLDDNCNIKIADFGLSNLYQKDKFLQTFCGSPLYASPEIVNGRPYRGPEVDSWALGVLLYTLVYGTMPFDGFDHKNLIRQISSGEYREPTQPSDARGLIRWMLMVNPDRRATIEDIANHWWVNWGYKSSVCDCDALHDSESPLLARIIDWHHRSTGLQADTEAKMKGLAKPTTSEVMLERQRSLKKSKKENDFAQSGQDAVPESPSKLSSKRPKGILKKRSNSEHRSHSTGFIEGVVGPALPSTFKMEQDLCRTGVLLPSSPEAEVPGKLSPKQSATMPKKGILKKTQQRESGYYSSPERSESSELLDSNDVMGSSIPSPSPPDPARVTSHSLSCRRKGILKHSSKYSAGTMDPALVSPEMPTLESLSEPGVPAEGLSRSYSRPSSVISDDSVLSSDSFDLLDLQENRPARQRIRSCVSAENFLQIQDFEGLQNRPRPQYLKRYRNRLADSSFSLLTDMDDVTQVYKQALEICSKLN
Kind of test: NUAK1 counter screen. The format is biochemical. The method in brief: as §1
(Counterscreens check selectivity or assay interference.)

Test [3] addresses T3, Aurora A (Homo sapiens, UniProt O14965).
T3 sequence (O14965 1-403): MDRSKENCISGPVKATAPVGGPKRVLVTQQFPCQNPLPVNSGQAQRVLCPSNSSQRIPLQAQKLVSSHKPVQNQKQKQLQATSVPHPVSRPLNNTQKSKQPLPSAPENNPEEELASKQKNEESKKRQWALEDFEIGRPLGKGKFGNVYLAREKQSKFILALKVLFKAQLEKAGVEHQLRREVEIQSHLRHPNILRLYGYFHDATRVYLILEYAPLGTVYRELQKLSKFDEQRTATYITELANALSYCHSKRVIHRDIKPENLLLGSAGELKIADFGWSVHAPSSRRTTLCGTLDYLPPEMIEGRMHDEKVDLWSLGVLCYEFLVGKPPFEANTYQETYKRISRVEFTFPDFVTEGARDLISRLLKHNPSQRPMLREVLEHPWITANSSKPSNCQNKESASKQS
In words: Aurora A counter screen. The format is biochemical. To be noted: read-out: AUR-A (IC50). The method in brief: as §1

Test [4] has as its system MDA-MB-231 cells. In words: Tumor cell growth inhibition assay (ATPlite). It counts as cell-based. To be noted: Homo sapiens, 120 h, MDA-MB-231 breast tumor cell line, 5 days. As for the experimental part:
MDA-MB-231 cells were seeded into a 384-well plate at 1,000 cells/well in 50 μl medium (Alpha-MEM containing 10% FBS, […] Normocin, Invivogen and […] Gentamycin, Invitrogen). Plates were then incubated overnight for the cells to attach. An HP D300 digital dispenser was used to dose cells with DMSO or test compounds across a 16-point range of concentrations (high dose of 10 uM to low dose of 5 nM). Plates were incubated in a humidified 5% CO2 incubator at 37° C. After 5 days, plates were removed from the incubator and equilibrated to room temperature. An equal volume of ATPlite assay reagent was then added to each well, and samples processed according to manufacturer's instructions (Perkin Elmer). Luminescent signals were then measured using an Envision plate reader equipped with a US-Luminescence detector.

As a reminder, the IC50 is the concentration that inhibits the measured activity by half. Consider `CN1CCN(c2ccc(Nc3ncc(C#N)c(Nc4ccsc4C(N)=O)n3)c(OC(F)F)c2)CC1` [Compound I-38, 3-((5-cyano-2-((2-(difluoromethoxy)-4-(4-methylpiperazin-1-yl)phenyl)amino)pyrimidin-4-yl)amino)thiophene-2-carboxamide], for which the IC50 is 0.1 to 10 nM in test [1], 11 to 100 nM in test [2], 101 to 1000 nM in test [3] and 120 nM in test [4].
Take `CN1CCN(C2CCN(c3ccc(Nc4ncc(Cl)c(Nc5ccsc5C(N)=O)n4)c(OC(F)F)c3)CC2)CC1` [Compound I-41, 3-((5-chloro-2-((2-(difluoromethoxy)-4-(4-(4-methylpiperazin-1-yl)piperidin-1-yl)phenyl)amino)pyrimidin-4-yl)amino)thiophene-2-carboxamide]: in test [1], the “AUR-A (IC50, nM)/NUAK2 (IC50, nM)” value was found to be 30. Besides, the IC50 in test [1] is 11 to 100 nM; in test [2] it was 11 to 100 nM; in test [3], 101 to 1000 nM; in test [4], 202 nM.
As for `CN1CCN(C2CCN(c3ccc(Nc4ncc(C(F)(F)F)c(Nc5ccsc5C(N)=O)n4)c(OC(F)F)c3)CC2)CC1` [Compound I-52, 3-((2-((2-(difluoromethoxy)-4-(4-(4-methylpiperazin-1-yl)piperidin-1-yl)phenyl)amino)-5-(trifluoromethyl)pyrimidin-4-yl)amino)thiophene-2-carboxamide], the IC50 in test [1] was 0.1 to 10 nM; in test [2], 0.1 to 10 nM; in test [3], 11 to 100 nM; in test [4], 142 nM.
Turning to `CN1CCN(c2ccc(Nc3ncc(Cl)c(Nc4ccsc4C(N)=O)n3)c(OC(F)F)c2F)CC1` [Compound I-42, 3-((5-chloro-2-((2-(difluoromethoxy)-3-fluoro-4-(4-methylpiperazin-1-yl)phenyl)amino)pyrimidin-4-yl)amino)thiophene-2-carboxamide], the “AUR-A (IC50, nM)/NUAK2 (IC50, nM)” value in test [1] amounted to 86. Further, the IC50 in test [1] is 11 to 100 nM; in test [2], 11 to 100 nM; in test [3], greater than 1000 nM; in test [4], 653 nM.
For the molecule `CN1C2CCC1CN(c1ccc(Nc3ncc(Cl)c(Nc4ccsc4C(N)=O)n3)c(OC(F)F)c1)C2` [Compound I-30, 3-((5-chloro-2-((2-(difluoromethoxy)-4-(8-methyl-3,8-diazabicyclo[3.2.1]octan-3-yl)phenyl)amino)pyrimidin-4-yl)amino)thiophene-2-carboxamide], the IC50 in test [1] is 0.1 to 10 nM; in test [2], 11 to 100 nM; in test [3] it was 101 to 1000 nM; in test [4], 144 nM.
As to `CN1C[C@@H]2CN(c3ccc(Nc4ncc(Cl)c(Nc5ccsc5C(N)=O)n4)c(OC(F)F)c3)C[C@@H]2C1` [Compound I-57, 3-((5-chloro-2-((2-(difluoromethoxy)-4-((3aR,6aS)-5-methylhexahydropyrrolo[3,4-c]pyrrol-2(1H)-yl)phenyl)amino)pyrimidin-4-yl)amino)thiophene-2-carboxamide], the IC50 fell in the range of 0.1 to 10 nM in test [1], 0.1 to 10 nM in test [2] and 101 to 1000 nM in test [3].
On to `NC(=O)c1sccc1Nc1nc(Nc2ccc(N3CCC(N4CCCC4)CC3)cc2OC(F)F)ncc1Cl` [Compound I-48, 3-((5-chloro-2-((2-(difluoromethoxy)-4-(4-(pyrrolidin-1-yl)piperidin-1-yl)phenyl)amino)pyrimidin-4-yl)amino)thiophene-2-carboxamide], for which the IC50 was 0.1 to 10 nM in test [1], 0.1 to 10 nM in test [2] and 11 to 100 nM in test [3].
In the case of `NC(=O)c1sccc1Nc1nc(Nc2ccc(N3CCN4CCC[C@@H]4C3)cc2OC(F)F)ncc1Cl` [Compound I-44, (R)-3-((5-chloro-2-((2-(difluoromethoxy)-4-(hexahydropyrrolo[1,2-a]pyrazin-2(1H)-yl)phenyl)amino)pyrimidin-4-yl)amino)thiophene-2-carboxamide], the “AUR-A (IC50, nM)/NUAK2 (IC50, nM)” value in test [1] stood at 137. Further, the figures for the IC50 in test [1], in test [2] and in test [3] were 0.1 to 10 nM, 11 to 100 nM and 101 to 1000 nM, respectively.
For `CN1CCN(c2ccc(Nc3ncc(C(F)(F)F)c(Nc4ccsc4C(N)=O)n3)c(OC(F)F)c2)CC1` [Compound I-27, 3-((2-((2-(difluoromethoxy)-4-(4-methylpiperazin-1-yl)phenyl)amino)-5-(trifluoromethyl)pyrimidin-4-yl)amino)thiophene-2-carboxamide], the IC50 lay in the range of 0.1 to 10 nM in test [1], 0.1 to 10 nM in test [2] and 101 to 1000 nM in test [3].
On to `C[C@@H]1CN(c2ccc(Nc3ncc(Cl)c(Nc4ccsc4C(N)=O)n3)c(OC(F)F)c2)C[C@H](C)N1C` [Compound I-8, 3-((5-chloro-2-((2-(difluoromethoxy)-4-((3R,5S)-3,4,5-trimethylpiperazin-1-yl)phenyl)amino)pyrimidin-4-yl)amino)thiophene-2-carboxamide], for which the IC50 is 0.1 to 10 nM in test [1], 0.1 to 10 nM in test [2] and 11 to 100 nM in test [3].
Take `C[C@H]1CN(c2ccc(Nc3ncc(Cl)c(Nc4sccc4C(N)=O)n3)c(OC(F)F)c2)CCN1C` [Compound I-23, (S)-2-((5-chloro-2-((2-(difluoromethoxy)-4-(3,4-dimethylpiperazin-1-yl)phenyl)amino)pyrimidin-4-yl)amino)thiophene-3-carboxamide]: the IC50 in test [1] lay within 11 to 100 nM; in test [2], 11 to 100 nM; in test [3], 101 to 1000 nM.
`NC(=O)c1sccc1Nc1nc(Nc2ccc(N3CCC(N4CCOCC4)CC3)cc2OC(F)F)ncc1Cl` [Compound I-43, 3-((5-chloro-2-((2-(difluoromethoxy)-4-(4-morpholinopiperidin-1-yl)phenyl)amino)pyrimidin-4-yl)amino)thiophene-2-carboxamide]: the IC50 lay within 0.1 to 10 nM in test [1], 11 to 100 nM in test [2] and 101 to 1000 nM in test [3].
Turning to `NC(=O)c1sccc1Nc1nc(Nc2ccc(N3CCC(N4CCN5CCC[C@@H]5C4)CC3)cc2OC(F)F)ncc1Cl` [Compound I-71, (R)-3-((5-chloro-2-((2-(difluoromethoxy)-4-(4-(hexahydropyrrolo[1,2-a]pyrazin-2(1H)-yl)piperidin-1-yl)phenyl)amino)pyrimidin-4-yl)amino)thiophene-2-carboxamide], the 50% inhibitory concentration (IC50) in test [1], in test [2] and in test [3] was 11 to 100 nM in each case.
Turning to `CN1CCN(c2ccc(Nc3ncc(Cl)c(N[C@@H]4CCCC[C@@H]4C(N)=O)n3)c(C(F)(F)F)c2)CC1` [Compound I-85, (1S,2R)-2-((5-chloro-2-((4-(4-methylpiperazin-1-yl)-2-(trifluoromethyl)phenyl)amino)pyrimidin-4-yl)amino)cyclohexane-1-carboxamide], the values for the IC50 in test [1], in test [2] and in test [3] were 11 to 100 nM, 101 to 1000 nM and greater than 1000 nM, respectively.
